Data as given in patent EP0187355A1, “Process for preparing beta-lactam antibiotics” (E.R. Squibb & Sons, Inc., priority 1981, dated 1982).
Counter-ions that a name gives are not always drawn.

How the values were obtained:
Test in all cases: MIC, agar dilution
Type in all cases: cell-based
Micrococcus luteus, 2495 = conditions: Micrococcus luteus, 2495, 18 h, K-10 agar, 10^4 CFU, 37°C, read-out: M.I.C.
Procedure: (§1) The following methodology is used to determine the minimum inhibitory concentration (hereinafter referred to as MIC) of the […] of this invention.
(§2) The test organisms are grown in approximately 15-20 ml of Antibiotic Assay broth (Difco) by inoculating (in tubes) the broth with a loopful of the organism from a BHI (Difco) agar slant. The inoculated tubes are incubated at 37°C for 18 to 20 hours. These cultures are assumed to contain 10^9 colony forming units (hereinafter CFU) per milliliter. The cultures are diluted 1:100 to give a final inoculum level of 10^4 CFU; dilutions are made with K-10 broth^*.
(§3) The compounds are dissolved in the appropriate diluent at a concentration of 1000 µg/ml. Twofold dilutions are made in K-10 broth resulting in a range from 1000 µg/ml to 0.5 µg/ml. 1.5 ml of each dilution is placed into individual square petri dishes to which 13.5 ml of K-10 agar^** is added. The final drug concentration in the agar ranges from 100 µg/ml to 0.05 µg/ml. Organism growth control plates containing agar only are prepared and inoculated before and after the test plates. The organisms are applied to the agar surface of each plate with the Denley Multipoint Inoculator (which delivers approximately 0.001 ml of each organism) resulting in a final inoculum level of 10^4 CFU on the agar surface.
(§4) The MIC is the lowest concentration of compound inhibiting growth of the organism.
(§5) The number following each organism refers to the number of the organism in the collection of E. R. Squibb & Sons,.Inc., Princeton, New Jersey. […] The symbol "N.T." means not tested.

[1] = system: Streptococcus agalactiae, 9287; conditions: Streptococcus agalactiae, 9287, 18 h, K-10 agar, 10^4 CFU, 37°C, read-out: M.I.C.
Procedure: as §1, §2, §3, §4, §5

[2] = system: Enterobacter cloacae, 8236; conditions: Enterobacter cloacae, 8236, 18 h, K-10 agar, 10^4 CFU, 37°C
Procedure: as §1, §2, §3, §4, §5

Escherichia coli, 10857 = conditions: Escherichia coli, 10857, 18 h, K-10 agar, 10^4 CFU, 37°C
Procedure: as §1, §2, §3
(§6) The plates are incubated at 37 °C for 18 hours and the MIC's are determined. The MIC is the lowest concentration of compound inhibiting growth of the organism.
as §5, with “The tables that follow are tabulated results obtained when the B-lactams of this invention are tested against various organisms. The number” for “The number”

[3] = system: Klebsiella aerogenes, 10440; conditions: K-10 agar, 10^4 CFU, 37°C, 18 hours, read-out: M.I.C.
Procedure: as §1, §2, §3, §6
as §5, with “The tables that follow are tabulated results obtained when the B-lactams of this invention are tested against various organisms. The number” for “The number”

Shigella sonnei, 8449 = conditions: Shigella sonnei, 8449, 18 h, K-10 agar, 10^4 CFU, 37°C
Procedure: as §1, §2, §3, §6
as §5, with “The tables that follow are tabulated results obtained when the B-lactams of this invention are tested against various organisms. The number” for “The number”

[4] = system: Pseudomonas aeruginosa, 9545; conditions: Pseudomonas aeruginosa, 9545, 18 h, K-10 agar, 10^4 CFU, 37°C, read-out: M.I.C.
Procedure: as §1, §2, §3, §6
as §5, with “The tables that follow are tabulated results obtained when the B-lactams of this invention are tested against various organisms. The number” for “The number”

[5] = system: Citrobacter freundii, 9518; conditions: K-10 agar, 10^4 CFU, 37°C, 18 hours, read-out: M.I.C.
Procedure: as §1, §2, §3, §6
as §5, with “The tables that follow are tabulated results obtained when the B-lactams of this invention are tested against various organisms. The number” for “The number”

[6] = system: Staphylococcus aureus, 1276; conditions: Staphylococcus aureus, 1276; K-10 agar, 10^4 CFU, 37°C, 18 hours; read-out: M.I.C.
Procedure: as §1, §2, §3, §6
as §5, with “The tables that follow are tabulated results obtained when the B-lactams of this invention are tested against various organisms. The number” for “The number”

[7] = system: Streptococcus faecalis, 9011; conditions: Enterococcus faecalis; Streptococcus faecalis, 9011; K-10 agar, 10^4 CFU, 37°C, 18 hours; read-out: M.I.C.
Procedure: as §1, §2, §3, §6
as §5, with “The tables that follow are tabulated results obtained when the B-lactams of this invention are tested against various organisms. The number” for “The number”

[8] = system: Staphylococcus aureus, 10165; conditions: Staphylococcus aureus, 10165; K-10 agar, 10^4 CFU, 37°C, 18 hours; read-out: M.I.C.
Procedure: as §1, §2, §3, §6
as §5, with “The tables that follow are tabulated results obtained when the B-lactams of this invention are tested against various organisms. The number” for “The number”

[9] = system: Enterobacter aerogenes, 10078; conditions: Klebsiella aerogenes, 10078, 18 h, Enterobacter aerogenes, 10078; K-10 agar, 10^4 CFU, 37°C, 18 hours; read-out: M.I.C.
Procedure: as §1, §2, §3, §6
as §5, with “The tables that follow are tabulated results obtained when the B-lactams of this invention are tested against various organisms. The number” for “The number”

Escherichia coli, 8294 = conditions: Escherichia coli, 8294, 18 h, K-10 agar, 10^4 CFU, 37°C
Procedure: as §1, §2, §3, §6
as §5, with “The tables that follow are tabulated results obtained when the B-lactams of this invention are tested against various organisms. The number” for “The number”

[10] = system: Acinetobacter calcoaceticus, 8333; conditions: Acinetobacter calcoaceticus, 8333, 18 h, K-10 agar, 10^4 CFU, 37°C, read-out: M.I.C.
Procedure: as §1, §2, §3, §6
as §5, with “The tables that follow are tabulated results obtained when the B-lactams of this invention are tested against various organisms. The number” for “The number”

[11] = system: Serratia marcescens, 9783; conditions: Serratia marcescens, 9783, 18 h, K-10 agar, 10^4 CFU, 37°C, read-out: M.I.C.
Procedure: as §1, §2, §3, §6
as §5, with “The tables that follow are tabulated results obtained when the B-lactams of this invention are tested against various organisms. The number” for “The number”

Salmonella typhosa, 1195 = conditions: Salmonella enterica, TYPHOSA, 18 h, K-10 agar, 10^4 CFU, 37°C
Procedure: as §1, §2, §3, §6
as §5, with “The tables that follow are tabulated results obtained when the B-lactams of this invention are tested against various organisms. The number” for “The number”

[12] = system: Staphylococcus aureus, 2400; conditions: Staphylococcus aureus, 2400; K-10 agar, 10^4 CFU, 37°C, 18 hours; read-out: M.I.C.
Procedure: as §1, §2, §3, §6
as §5, with “The tables that follow are tabulated results obtained when the B-lactams of this invention are tested against various organisms. The number” for “The number”

[13] = system: Klebsiella pneumoniae, 9527; conditions: Klebsiella pneumoniae, 9527, 18 h, K-10 agar, 10^4 CFU, 37°C, read-out: M.I.C.
Procedure: as §1, §2, §3, §6
as §5, with “The tables that follow are tabulated results obtained when the B-lactams of this invention are tested against various organisms. The number” for “The number”

Proteus rettgeri, 8479 = conditions: Providencia rettgeri, K-10 agar, 10^4 CFU, 37°C, 18 hours, read-out: M.I.C.
Procedure: as §1, §2, §3, §6
as §5, with “The tables that follow are tabulated results obtained when the B-lactams of this invention are tested against various organisms. The number” for “The number”

[14] = system: Staphylococcus aureus, 2399; conditions: Staphylococcus aureus, 2399, 18 h, Staphylococcus aureus, 2399; K-10 agar, 10^4 CFU, 37°C, 18 hours; read-out: M.I.C.
Procedure: as §1, §2, §3, §6
as §5, with “The tables that follow are tabulated results obtained when the B-lactams of this invention are tested against various organisms. The number” for “The number”

Escherichia coli, 10896 = conditions: K-10 agar, 10^4 CFU, 37°C, 18 hours
Procedure: as §1, §2, §3, §6
as §5, with “The tables that follow are tabulated results obtained when the B-lactams of this invention are tested against various organisms. The number” for “The number”

Proteus vulgaris, 9416 = conditions: K-10 agar, 10^4 CFU, 37°C, 18 hours, read-out: M.I.C.
Procedure: as §1, §2, §3, §6
as §5, with “The tables that follow are tabulated results obtained when the B-lactams of this invention are tested against various organisms. The number” for “The number”

Proteus mirabilis, 3855 = conditions: Proteus mirabilis, 3855, 18 h, K-10 agar, 10^4 CFU, 37°C, read-out: M.I.C.
Procedure: as §1, §2, §3, §6
as §5, with “The tables that follow are tabulated results obtained when the B-lactams of this invention are tested against various organisms. The number” for “The number”

Escherichia coli, 10909 = conditions: K-10 agar, 10^4 CFU, 37°C, 18 hours
Procedure: as §1, §2, §3, §6
as §5, with “The tables that follow are tabulated results obtained when the B-lactams of this invention are tested against various organisms. The number” for “The number”

[15] = system: Pseudomonas aeruginosa, 8329; conditions: K-10 agar, 10^4 CFU, 37°C, 18 hours, read-out: M.I.C.
Procedure: as §1, §2, §3, §6
as §5, with “The tables that follow are tabulated results obtained when the B-lactams of this invention are tested against various organisms. The number” for “The number”

Structure (SMILES) | MIC (Micrococcus luteus, 2495) [µg/mL] | MIC [1] [µg/mL] | MIC [2] [µg/mL] | MIC (Escherichia coli, 10857) [µg/mL] | MIC [3] [µg/mL] | MIC (Shigella sonnei, 8449) [µg/mL] | MIC [4] [µg/mL] | MIC [5] [µg/mL] | MIC [6] [µg/mL] | MIC [7] [µg/mL] | MIC [8] [µg/mL] | MIC [9] [µg/mL] | MIC (Escherichia coli, 8294) [µg/mL] | MIC [10] [µg/mL] | MIC [11] [µg/mL] | MIC (Salmonella typhosa, 1195) [µg/mL] | MIC [12] [µg/mL] | MIC [13] [µg/mL] | MIC (Proteus rettgeri, 8479) [µg/mL] | MIC [14] [µg/mL] | also measured
CC1C(NC(=O)OCc2ccccc2)C(=O)N1S(=O)(=O)O (racemic) [Example 1, (±―cis)-4-Methyl-2-oxo-3-[[(phenylmethoxy)carbonyl]-amino]-1-azetidinesulfonic acid, potassium salt] | > 100 | 100 | > 100 | > 100 | > 100 | > 100 | > 100 | > 100 | 100 | > 100 | 100 | > 100 | > 100 | > 100 | > 100 | > 100 | 50 | > 100 | > 100 | 50 | MIC (Escherichia coli, 10896): > 100 µg/mL; MIC (Proteus vulgaris, 9416): > 100 µg/mL; MIC (Proteus mirabilis, 3855): > 100 µg/mL; MIC (Escherichia coli, 10909): > 100 µg/mL; MIC [15]: > 100 µg/mL
CC1C(NC(=O)Cc2ccccc2)C(=O)N1S(=O)(=O)O (racemic) [Example 4, (cis)-4-Methyl-2-oxo-3-[(phenylacetyl)amino]-1-azetidinesulfonic acid, potassium salt] | 50 | 12.5 | > 100 | 50 | > 100 | 100 | > 100 | > 100 | 25 | > 100 | 100 | > 100 | 100 | > 100 | > 100 | 100 | 50 | 100 | 100 | 25 | MIC (Escherichia coli, 10896): 100 µg/mL; MIC (Proteus vulgaris, 9416): > 100 µg/mL; MIC (Proteus mirabilis, 3855): > 100 µg/mL; MIC (Escherichia coli, 10909): 50 µg/mL; MIC [15]: > 100 µg/mL
CON=C(C(=O)NC1C(=O)N(S(=O)(=O)O)C1C)c1csc(N)n1 (racemic) [Example 7, [3α(Z),4α]-3-[[(2-Amino-4-thiazolyl) (methoxy-imino)acetyl]amino]-4-methyl-2-oxo-l-azetidinesulfonic acid, potassium salt] | 6.3 | 3.1 | 0.2 | < 0.05 | 0.4 | 0.2 | 0.8 | 0.2 | 100 | > 100 | > 100 | 0.4 | 0.2 | 50 | 0.4 | < 0.05 | 50 | 0.1 | < 0.05 | 100 | MIC (Escherichia coli, 10896): 0.2 µg/mL; MIC (Proteus vulgaris, 9416): < 0.05 µg/mL; MIC (Proteus mirabilis, 3855): < 0.05 µg/mL; MIC (Escherichia coli, 10909): 0.1 µg/mL; MIC [15]: > 100 µg/mL
